According to patent publication EP4755892A1, “KINESIN KIF18A INHIBITOR AND USE THEREOF” (Shanghai Apeiron Therapeutics Company Limited, priority 2023, dated 2025):
pIC50: −log10 of the molar value.

Experiments:
[1] = target: T1, Human KIF18A (amino acid sequence 1-417) (Homo sapiens, UniProt Q8NI77); assay: Enzymatic Activity Test (ADP-Glo, microtubule-stimulated KIF18A ATPase); type: biochemical; details: 60 µg/mL microtubules, 25 µM ATP, 2.5 nM KIF18A protein, 120 min at ambient temperature, chemiluminescence; read-out: KIF 18A IC50
T1 construct: purchased Viva Biotech (Shanghai) Ltd
T1 sequence (Q8NI77 1-417): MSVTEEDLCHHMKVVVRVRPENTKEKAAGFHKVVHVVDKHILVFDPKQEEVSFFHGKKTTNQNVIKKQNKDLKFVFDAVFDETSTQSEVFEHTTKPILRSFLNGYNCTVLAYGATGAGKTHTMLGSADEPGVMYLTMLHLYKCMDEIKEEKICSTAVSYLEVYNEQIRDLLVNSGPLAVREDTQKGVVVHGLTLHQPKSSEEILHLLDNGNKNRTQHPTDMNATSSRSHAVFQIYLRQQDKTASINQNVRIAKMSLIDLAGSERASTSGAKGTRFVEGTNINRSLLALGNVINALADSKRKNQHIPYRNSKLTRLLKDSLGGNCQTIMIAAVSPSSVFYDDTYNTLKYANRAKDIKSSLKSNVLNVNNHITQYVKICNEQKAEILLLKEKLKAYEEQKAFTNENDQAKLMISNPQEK
Description: Assay 1: Enzymatic Activity Test
Materials: Human KIF18A (amino acid sequence 1-417) was purchased from Viva Biotech (Shanghai) Ltd.; the ADP-Glo™ protein kinase kit was acquired from Promega, USA; tubulin was sourced from Cytoskeleton, USA; and the 384-well assay plate and Envision multifunctional microplate reader were obtained from PerkinElmer, USA.
Enzymatic Activity Test: The compound powder was dissolved in DMSO to prepare a stock solution of 10 mM. Then gradient dilution was performed for the compounds in the microplate to achieve a final concentration of 0-10 µM. Then, 2.5 µL each of tubulin, compound, ATP, and KIF18A protein were added to the microplate in sequence for reaction at ambient temperature for 120 min. The final concentrations in the enzyme reaction were 60 µg/mL for microtubules, 25 µM for ATP, and 2.5 nM for KIF18A protein. After the enzyme reaction, 10 µL of ADP-GLO reaction reagent was added to each well and incubated at room temperature for 30 min. After that, 20 µL of detection reagent was added to each well and incubated at room temperature for 30 min in the dark. Finally, chemiluminescence detection was performed using the PerkinElmer Envision.

OVCAR3 cells = assay: Cell Proliferation Activity Test (CyQUANT Direct), OVCAR3; type: cell-based; details: Homo sapiens, OVCAR-3, 72 h, compound 0-10 µM, 3 days, 0.2% DMSO, CyQUANT fluorescence, read-out: OVCAR-3 _IC50_nM
Description: Assay 2: Cell Proliferation Activity Test
Materials and Cells: OVCAR3 cells were purchased from Nanjing Cobioer Biosciences Co., Ltd. RPMI-1640 medium, fetal bovine serum, and the CyQUANT Direct Cell Proliferation Assay kit were purchased from Thermo Fisher Scientific, USA; 96-well cell culture plates were sourced from Coming, USA.
Cell Culture: OVCAR3 cells were cultured with RPMI-1640 medium containing 10% fetal bovine serum and incubated in a 5% CO2 incubator at 37°C. Only cells in the logarithmic growth phase could be used for the test.
Cell Proliferation Activity Test:
OVCAR3 cells were inoculated into a 96-well cell culture plate at 90 µL per well and incubated overnight in a 5% CO2 incubator at 37°C. The compound powder was dissolved in DMSO to prepare a stock solution of 10 mM. Then gradient dilution was performed for the compounds in the microplate to achieve a final concentration of 0-10 µM. 10 µL of cell culture medium containing compounds was added to each well to make the final DMSO content 0.2%. The cell plates were incubated in a 5% CO2 incubator at 37°C for 3 days. 100 µL of CyQUANT detection reagent was added to each well, reacted at 37°C for 60 min, and fluorescence detection was performed using the PerkinElmer Envision.

HT29 cells = assay: CyQuant Cell Proliferation Activity Test, HT29; type: cell-based; details: Homo sapiens, HT-29, 72 h, HT29 cells 2000 per well, initial concentration 3000 nM, 3-fold dilution, 3 days, 0.2% DMSO, read-out: HT29_IC50 _nM
Description: Assay 3: CyQuant Cell Proliferation Activity Test
Materials and Cells: HT29 cells were purchased from Nanjing Cobioer Biosciences Co., Ltd.; RPMI-1640 medium, fetal bovine serum, Trypsin-EDTA (0.25%), 96-well plates, and CyQuant reagents were purchased from ThermoFisher (USA); DMSO was purchased from SIGMA (USA).
Cell Culture: HT29 cells were cultured with RPMI-1640 containing 10% fetal bovine serum under the condition of 37°C and 5% CO2. Only cells in the logarithmic growth phase could be used for the test.
Cell Proliferation Activity Test: CyQuant reagent was used to detect the proliferation inhibitory activity of compounds on HT29 cells. The cell density was adjusted, and 100 µL per well was inoculated into a 96-well plate (HT29 at 2000 cells per well), then incubated overnight at 37°C and 5% CO2. Add compounds of various target concentrations (initial concentration of 3000 nM, 3-fold dilution, 9 concentration gradients), and make the DMSO content 0.2%. The cell plate was incubated at 37°C in 5% CO2 for 3 days. CyQuant reagent was added and incubated for 1 h. The plates were read by Envision, and IC50 was calculated using XLFIT.

SMILES	pIC50 [1]	pIC50 (OVCAR3 cells)	pIC50 (HT29 cells)
O=C1Nc2cccc(c2)S(=O)(=O)NCCCC2CCN(CC2)c2cc(NS(=O)(=O)CCO)ccc21 [Example 16, N-(6,6-dioxo-3-oxo-6-thia-4,7-diaza-1(1,4)-piperidin-2(1,2),5(1,3)-diphenylheterocyclodecane-2^5-yl)-2-hydroxy-1-ethanesulfonamide]	6.23	< 5.52	< 5.52
O=C1Nc2cccc(c2)S(=O)(=O)NCC=CCCC2CCN(CC2)c2cc(NS(=O)(=O)CCO)ccc21 [Example 12, N-(6,6-dioxo-3-oxo-6-thia-4,7-diaza-1(1,4)-piperidin-2(1,2),5(1,3)-diphenylheterocyclododec-9-ene-2^5-yl)-2-hydroxy-1-ethanesulfonamide]	7.55	6.91	6.60
Cc1cc2nc(n1)N1CCCC(CCC3CCCN(C3)c3cc(NS(=O)(=O)CCO)ccc3C(=O)N2)C1 (stereo not shown) [Example 9, 2-Hydroxy-N-(1^6-methyl-7-oxo-8-aza-1(2,4)-pyrimidin-2(1,3),5(3,1)-dipiperidin-6 (1,2)-benzeneheterocyclooctan-6^5-yl)ethane-1-sulfonamide]	6.53	6.26	–
Cc1cc2nc(n1)N1CCCC(COCC3CCN(CC3)c3cc(NS(=O)(=O)CCO)ccc3C(=O)N2)C1 (stereo not shown) [Example 28A, 2-Hydroxy-N-((1^3R)-2^6-methyl-4-oxo-8-oxa-3-aza-2(2,4)-pyrimidin-1(1,3),6(1,4)-dipiperidin-5(1,2)-benzeneheterocyclononane-5^4-yl)ethane-1-sulfonamide]	6.75	–	–

Further molecules by rising pIC50 [1], results first:

pIC50 [1]	pIC50 (OVCAR3 cells)	pIC50 (HT29 cells)	SMILES
5.64	< 5.52	–	Cc1cc2nc(n1)N1CCCC(C=CC3CCCN(C3)c3cc(NS(=O)(=O)CCO)ccc3C(=O)N2)C1 (stereo not shown) [Example 8, (Z)-2-hydroxy-N-(1^6-methyl-7-oxo-8-aza-1(2,4)-pyrimidin-2(1,3),5(3,1)-dipiperidin-6(1,2)-benzeneheterocyclooct-3-en-6^5-yl)ethane-1-sulfonamide]
6.13	–	–	Cc1cc2nc(n1)N1CCCC(COCC3CCN(CC3)c3cc(NS(=O)(=O)CCO)ccc3C(=O)N2)C1 (stereo not shown) [Example 28B, 2-Hydroxy-N-((1^3S)-2^6-methyl-4-oxo-8-oxa-3-aza-2(2,4)-pyrimidin-1(1,3),6(1,4)-dipiperidin-5(1,2)-benzeneheterocyclononane-5^4-yl)ethane-1-sulfonamide]
6.56	< 5.52	< 5.52	O=C1Nc2cccc(c2)S(=O)(=O)NCC=CC2CCN(CC2)c2cc(NS(=O)(=O)CCO)ccc21 [Example 15, (E)-N-(6,6-dioxo-3-oxo-6-thia-4,7-diaza-1(1,4)-piperidin-2(1,2),5(1,3)-diphenylheterocyclodec-9-en-2^5-yl)-2-hydroxy-1-ethanesulfonamide]
6.63	6.82	–	Cc1cc2nc(n1)N1CCCC(CCCC3CCCN(C3)c3cc(NS(=O)(=O)CCO)ccc3C(=O)N2)C1 (stereo not shown) [Example 11, 2-Hydroxy-N-(2^6-methyl-4-oxo-3-aza-2(2,4)-pyrimidin-1,6(1,3)-dipiperidin-5(1,2) -benzoylcyclononyl-5^4-yl)ethane-1-sulfonamide]
6.85	–	–	Cc1cc2nc(n1)OCCOCCC1CCN(CC1)c1cc(NS(=O)(=O)CCO)ccc1C(=O)N2 [Example 29, 2-Hydroxy-N-(5^6-methyl-3-oxo-6,9-dioxa-4-aza-5(4,2)-pyrimidin-1(1,4)-piperidin-2(1,2)-benzeneheterocycloundecane-2^5)ethane-1-sulfonamide]
7.82	–	–	Cc1cc2nc(n1)N1CCOC(CCCC3CCN(CC3)c3cc(NS(=O)(=O)CCO)ccc3C(=O)N2)C1 (stereo not shown) [Example 26, 2-Hydroxy-N-((1^2S)-2^6-methyl-4-oxo-3-aza-1(4,2)-morpholin-2(2,4)-pyrimidin-6(1,4)-piperidin-5(1,2)-benzeneheterocyclononane-5^4-yl)ethane-1-sulfonamide]
